Numbering of substitutions follows the chain as printed.
How the values were obtained:
GAL2R mutants [1] = target: T1, GAL2R mutants (Homo sapiens, UniProt O43603, H102A); assay: Calcium assay, HEK293/Gα16 cells, GAL2R mutants; format: cell-based; conditions: GAL2R H1023.29A
T1 construct: expressed in transfected cells; host or cells: HEK293
T1 sequence (O43603 1-387 H102A): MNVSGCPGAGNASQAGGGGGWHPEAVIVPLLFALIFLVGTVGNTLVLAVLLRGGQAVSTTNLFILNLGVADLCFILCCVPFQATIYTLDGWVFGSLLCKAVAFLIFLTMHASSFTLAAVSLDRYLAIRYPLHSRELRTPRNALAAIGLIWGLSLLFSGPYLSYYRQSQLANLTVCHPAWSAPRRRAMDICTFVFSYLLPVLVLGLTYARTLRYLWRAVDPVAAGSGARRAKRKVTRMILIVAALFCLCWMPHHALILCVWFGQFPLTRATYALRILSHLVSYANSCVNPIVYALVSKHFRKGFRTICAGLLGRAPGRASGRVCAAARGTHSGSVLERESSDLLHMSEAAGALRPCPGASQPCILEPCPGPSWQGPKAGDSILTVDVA

GAL2R mutants [2] = target: T2, GAL2R mutants (Homo sapiens, UniProt O43603, L266A); assay: Calcium assay, HEK293/Gα16 cells, GAL2R mutants; format: cell-based; conditions: GAL2R L266ECL3A
T2 construct: expressed in transfected cells; host or cells: HEK293
T2 sequence (O43603 1-387 L266A): T1 sequence (O43603 1-387 H102A) with A102H, L266A

GAL2R mutants [3] = target: T3, GAL2R mutants (Homo sapiens, UniProt O43603, R184A); assay: Calcium assay, HEK293/Gα16 cells, GAL2R mutants; format: cell-based; conditions: GAL2R R1845.35A
T3 construct: expressed in transfected cells; host or cells: HEK293
T3 sequence (O43603 1-387 R184A): T1 sequence (O43603 1-387 H102A) with A102H, R184A

GAL2R mutants [4] = target: T4, GAL2R mutants (Homo sapiens, UniProt O43603, T267A); assay: Calcium assay, HEK293/Gα16 cells, GAL2R mutants; format: cell-based; conditions: GAL2R T2677.28A
T4 construct: expressed in transfected cells; host or cells: HEK293
T4 sequence (O43603 1-387 T267A): T1 sequence (O43603 1-387 H102A) with A102H, T267A

GAL2R mutants [5] = target: T5, GAL2R mutants (Homo sapiens, UniProt O43603, Y164A); assay: Calcium assay, HEK293/Gα16 cells, GAL2R mutants; format: cell-based; conditions: GAL2R Y1644.64A
T5 construct: expressed in transfected cells; host or cells: HEK293
T5 sequence (O43603 1-387 Y164A): T1 sequence (O43603 1-387 H102A) with A102H, Y164A

GAL2R over GAL1R = conditions: cross-reactivity to galanin receptors; cited from earlier work
From the text: In contrast, L^4P contacts with equivalent ECL2 residues with weaker hydrophobicity (L169^ECL2, A170^ECL2, and L172^ECL2) in GAL2R (Fig. 3e, Supplementary Fig. 4b). The structural observation is coincident with our peptide truncation assay.

[6] = response of 100 μM spexin compared to WT
[7] = response of 100 μM spexin compared to WT, mean ± S.E.M.

Question: For spexin, which Emax (GAL2R mutants [1]; [6]) is on record?
Answer: NR (NR, no response, refers to response < 10% compared to WT receptor (spexin at 100 μM))

Question: What about the Emax (GAL2R mutants [1]; spexin, replicate 1) of the same substance?
Answer: no response

Question: And the Emax (GAL2R mutants [1]; spexin, replicate 2)?
Answer: no response

Question: What about the Emax (GAL2R mutants [1]; spexin, replicate 3) of the same substance?
Answer: no response

Question: And the Emax (GAL2R mutants [2]; [7])?
Answer: 103.14±6.2%

Question: And the EC50 (GAL2R mutants [2]; spexin, replicate 1)?
Answer: 25.14 µM

Question: And the Emax (GAL2R mutants [2]; spexin, replicate 1)?
Answer: 98.5714%

Question: And the EC50 (GAL2R mutants [2]; spexin, replicate 2)?
Answer: 15.28 µM

Question: And the Emax (GAL2R mutants [2]; spexin, replicate 2)?
Answer: 95.5224%

Question: And the EC50 (GAL2R mutants [2]; spexin, replicate 3)?
Answer: 11.99 µM

Question: And the Emax (GAL2R mutants [2]; spexin, replicate 3)?
Answer: 115.328%

Question: And the Emax (GAL2R mutants [3]; [7])?
Answer: 32.36±1.6%

Question: What about the EC50 (GAL2R mutants [3]; spexin, replicate 1) of the same substance?
Answer: 0.3712 µM

Question: And the Emax (GAL2R mutants [3]; spexin, replicate 1)?
Answer: 29.7886%

Question: What about the EC50 (GAL2R mutants [3]; spexin, replicate 2) of the same substance?
Answer: 0.9731 µM

Question: What about the Emax (GAL2R mutants [3]; spexin, replicate 2) of the same substance?
Answer: 32.1089%

Question: What about the EC50 (GAL2R mutants [3]; spexin, replicate 3) of the same substance?
Answer: 10.58 µM

Question: What about the Emax (GAL2R mutants [3]; spexin, replicate 3) of the same substance?
Answer: 35.1728%

Question: And the Emax (GAL2R mutants [4]; [7])?
Answer: 19.9±3.4%

Question: What about the EC50 (GAL2R mutants [4]; spexin, replicate 1) of the same substance?
Answer: 0.0008339 µM

Question: What about the Emax (GAL2R mutants [4]; spexin, replicate 1) of the same substance?
Answer: 26.5588%

Question: What about the EC50 (GAL2R mutants [4]; spexin, replicate 2) of the same substance?
Answer: 10.49 µM

Question: What about the Emax (GAL2R mutants [4]; spexin, replicate 2) of the same substance?
Answer: 17.6424%

Question: What about the EC50 (GAL2R mutants [4]; spexin, replicate 3) of the same substance?
Answer: 1.506 µM

Question: And the Emax (GAL2R mutants [4]; spexin, replicate 3)?
Answer: 15.5083%

Question: And the Emax (GAL2R mutants [5]; [6])?
Answer: NR (NR, no response, refers to response < 10% compared to WT receptor (spexin at 100 μM))

Question: What about the Emax (GAL2R mutants [5]; spexin, replicate 1) of the same substance?
Answer: no response

Question: And the Emax (GAL2R mutants [5]; spexin, replicate 2)?
Answer: no response

Question: And the Emax (GAL2R mutants [5]; spexin, replicate 3)?
Answer: no response

Question: And the “affinity for GALR2 versus GALR1” value (GAL2R over GAL1R)?
Answer: high affinity for GALR2 but not GALR1

Source: paper PMC8924211 (Nature Communications, 2022)
